How the values were obtained:
[1] = tested on: HCV RNA in ORL8 cells; test: Production of cured cells from ORL8 cells by treatment with N-89; type: cell-based, HCV genotype 1b
Procedure: A drug treatment method for the cells was performed according to a method with IFN-γ (1,000 IU/mL) (Abe K et al., Virus Res. 125:88-97, 2007) generally used in the production of cured cells by the inventors of the present invention.
(§1) 4×10^5 ORL8 cells were plated onto a 10-cm plate (10 mL of medium in the absence of G418) (Day 1), and N-89 was added so as to achieve a final concentration of 1 μM the next day (Day 2). After 3 days (Day 5), the cells were diluted 10-fold, and N-89 was added again the next day. This operation was repeated an additional four times (N-89 was added six times in total: Days 2, 6, 10, 14, 18, and 22). At the time of the dilution of the cells (Day 13), which was performed 3 days after the third addition of N-89, the cells were divided into two plates with medium in the presence of G418 (neomycin) (0.3 mg/mL) and medium in the absence of G418. Then, N-89 was added three times, a plurality of plates were prepared at the time of the final dilution of the cells, and finally, one of the plates for each of the media was subjected to CBB staining (Day 26).
FIG. 14 show the results. […] The ORL8 cells cultured in the medium in the presence of G418 were all killed, whereas the ORL8 cells cultured in the absence of G418 became confluent at a normal proliferation rate. In order to confirm that HCV RNA was eliminated from the cells, Western blot analysis was performed using an anti-HCV core antibody and an anti-HCV NS5B antibody (FIG. 14c). The ORL8 cells were used as a positive control.

[2] = tested on: HCV RNA in OL8 cells (HCV-O strain-derived full-length HCV-genome-replicating cells); test: Production of cured cells from OL8 cells subcultured for 3 years; type: cell-based; details: treated similarly with N-89
Procedure: as §1
(§2) Further, cells obtained by subculturing HCV-O strain-derived full-length HCV-genome-replicating cells (OL8 cells and OL11 cells) (Kato et al., Virus Res. 146:41-50, 2009) for 3 years (the cells had acquired the status of genetic diversity (called quasispecies) owing to various mutations in an HCV genome caused by the sustained replication of the HCV genome) were used and similarly treated with N-89.

[3] = tested on: HCV-RNA replication in ORL8 cells; test: Influence of oxidizing agents KNO3 and NaClO4 on anti-HCV activity in ORL8 cells; type: cell-based, HCV genotype 1b; details: N-89 0.5 μM + KNO3 or NaClO4 10 μM, 72 hours
Procedure: The effects of addition of KNO3 and NaClO4 on the anti-HCV activity of N-89 were examined using ORL8 cells.
N-89 and KNO3 or NaClO4 were simultaneously added so that the concentrations of N-89 and KNO3 or NaClO4 were set to 0.5 μM and 10 μM, respectively. The luciferase activity was measured 72 hours after the culture.

[4] = tested on: HCV-RNA replication in ORL8 cells; test: Effect of antioxidant vitamin E on anti-HCV activity in ORL8 cells (luciferase activity); type: cell-based, HCV genotype 1b; details: for luciferase activity, compound in combination with vitamin E: compound 0.5 μM + vitamin E 10 μM; for luciferase activity, compound in combination with vitamin E / luciferase activity (HCV activity), compound alone: 72 hours; for luciferase activity (HCV activity), compound alone: compound 0.5 μM alone; for canceling of the anti-HCV activity by vitamin E: vitamin E 10 μM
Procedure: The effect of addition of vitamin E on the anti-HCV activity of N-89 was examined using ORL8 cells. An experimental scale and schedule are the same as those in Example 1.
N-89 and vitamin E were simultaneously added so that the concentrations of N-89 and vitamin E were set to 0.5 μM and 10 μM, respectively. The luciferase activity was measured 72 hours after the culture.
The effect of addition of vitamin E on the anti-HCV activity of N-251 was examined using ORL8 cells. An experimental scale and schedule are the same as those in Example 1.
N-251 and vitamin E were simultaneously added so that the concentrations of N-251 and vitamin E were set to 0.5 μM and 10 μM, respectively. The luciferase activity was measured 72 hours after the culture.
The effect of addition of vitamin E on the anti-HCV activity of artemisinin was examined using ORL8 cells. An experimental scale and schedule are the same as those in Example 1.
Artemisinin and vitamin E were simultaneously added so that the concentrations of artemisinin and vitamin E were set to 100 μM and 10 μM, respectively. The luciferase activity was measured 72 hours after the culture.

[5] = tested on: HCV RNA in OL11 cells (HCV-O strain-derived full-length HCV-genome-replicating cells); test: Production of cured cells from OL11 cells subcultured for 3 years; type: cell-based; details: treated similarly with N-89
Procedure: as §1, §2

[6] = Cytotoxic effect, WST-1 cell proliferation assay in AH1R cells; type: cell-based; details: human
Excerpt: (§3) Assay systems using OR6 cells (HCV-O strain), 1B-4R cells (HCV-1B-4 strain), and AH1R cells (HCV-AH1R strain) as HuH-7 cell-derived full-length HCV-RNA-replicating cells, and ORL8 cells (HCV-O strain), ORL11 cells (HCV-O strain), 1B-4RL cells (HCV-1B-4 strain), and KAH5RL cells (HCV-KAH5 strain) as Li23 cell-derived full-length HCV-RNA-replicating cells were used for the quantitative analysis of anti-HCV activity and evaluation of a cytotoxic effect in the present invention. […] In addition, all the HCV strains belong to genotype 1b.
The WST-1 cell proliferation assay was performed 72 hours after the culture.

[7] = tested on: 1B-4RL cells; test: Cytotoxic effect, WST-1 cell proliferation assay in 1B-4RL cells; type: cell-based, human; details: 72 hours
Excerpt: as §3
N-89 was added at the concentrations used for the measurement of the luciferase activity, and N-251 was added so as to achieve concentrations of 2 μM, a 2-fold dilution series from 2 μM (1, 0.5, 0.25, 0.13, 0.06, and 0.03 μM), and 0. The WST-1 cell proliferation assay was performed 72 hours after the addition.

[8] = tested on: KAH5RL cells; test: Cytotoxic effect, WST-1 cell proliferation assay in KAH5RL cells; type: cell-based, human; details: KAH5RL vs ORL8
Procedure: (§4) The concentrations of N-89 and N-251 were the same as the concentrations used for the measurement of the luciferase activity, and the WST-1 cell proliferation assay was performed 72 hours after the addition.

[9] = as above; type: cell-based, human; details: human; KAH5RL cells, 72 hours, WST-1
Procedure: as §4

[10] = tested on: OR6 cells; test: Cytotoxic effect, WST-1 cell proliferation assay in OR6 cells; details: OR6 cells, 72 hours, WST-1
Excerpt: Assay systems using OR6 cells (HCV-O strain), 1B-4R cells (HCV-1B-4 strain), and AH1R cells (HCV-AH1R strain) as HuH-7 cell-derived full-length HCV-RNA-replicating cells, and ORL8 cells (HCV-O strain), ORL11 cells (HCV-O strain), 1B-4RL cells (HCV-1B-4 strain), and KAH5RL cells (HCV-KAH5 strain) as Li23 cell-derived full-length HCV-RNA-replicating cells were used for the quantitative analysis of anti-HCV activity and evaluation of a cytotoxic effect in the present invention. The three cell lines, i.e., the 1B-4R cells, the 1B-4RL cells, and the KAH5RL cells have been disclosed in WO 2010/026965 A1. The AH1R cells may be produced with reference to Mori K et al., BBRC, 371:104-109, 2008 and WO 2010/026965 A1. In addition, all the HCV strains belong to genotype 1b.
In the measurement of the renilla luciferase activity and the measurement by the WST-1 method, experiments were performed in three wells independent of each other, and their means and standard deviation were calculated.
After 24 hours, N-89 was added so as to achieve concentrations of 20 μM, a 2-fold dilution series from 20 μM (10, 5, 2.5, 1.3, 0.63, and 0.31 μM), and 0, or N-251 was added so as to achieve concentrations of 10 μM, a 2-fold dilution series from 10 μM (5, 2.5, 1.3, 0.63, 0.31, and 0.16 μM), and 0.
The cytotoxic effect of artemisinin was examined using OR6 and ORL8 cells and the CC50 values were calculated. […]

Compound: C1CCCCCC2(CCCCC1)OOCCCOO2 [N-89, 1,2,6,7-tetraoxaspiro[7,11]nonadecane]
- HCV core protein and NS5B in treated cells (Western blot) ([1]; ORL8 cells treated with N-89 1 μM, added six times, Day 26): none of a core protein and NS5B was detected
- treated cells cultured in medium in the presence of G418 (CBB staining) ([1]; ORL8 cells, N-89 1 μM, G418 0.3 mg/mL): all killed
- production of cured cells ([1]; ORL8 cells, N-89 1 μM, added six times): cured cells were able to be produced
- production of cured cells [2]: cured cells were able to be produced
- influence of KNO3 or NaClO4 in combination on the anti-HCV activity [3]: no influence
- luciferase activity, compound in combination with vitamin E [4]: 245%
- luciferase activity (HCV activity), compound alone [4]: 27%
- canceling of the anti-HCV activity by vitamin E [4]: completely canceled
- production of cured cells [5]: cured cells were able to be produced
- CC50 at 72 h [6]: ~500 nM

Compound: OCCCCCCC1COOC2(CCCCCCCCCCC2)OOC1 [N-251, 6-(1,2,6,7-tetraoxaspiro[7,11]nonadec-4-yl)]
- CC50 [7]: 1900 nM
- CC50 fold higher in KAH5RL cells than in ORL8 cells [8]: about 2.5 fold
- CC50 at 72 h [9]: 3200 nM
- CC50 [10]: 3000 nM
- luciferase activity, compound in combination with vitamin E [4]: 215%
- luciferase activity (HCV activity), compound alone [4]: 33%
- canceling of the anti-HCV activity by vitamin E [4]: completely canceled

Source: patent US9289411B2, “Anti-HCV agent” (NATIONAL UNIVERSITY CORPORATION OKAYAMA UNIVERSITY, priority 2011, dated 2016)
